Assay results from the supplement of paper PMC10307832.

Tests used:
Test in all cases: relative viability (nuclei count vs DMSO), 5 days (fraction); higher = more cells survive
Salubrinal + AZD7762 = compound: O=C(/C=C/c1ccccc1)NC(NC(=S)Nc1cccc2cccnc12)C(Cl)(Cl)Cl [Salubrinal] + NC(=O)Nc1cc(-c2cccc(F)c2)sc1C(=O)N[C@H]1CCCNC1 [AZD7762] (partner 0.2 µM)
In short: (§1)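 Relative viability equals treated-well nuclei counts divided by vehicle-well nuclei counts. Counts came from 4× images of lung cancer cell lines grown in 1536-well plates for 5 days after pin-tool dosing on the day after seeding. Dosing used one drug alone or a fixed anchor-drug dose plus five library-drug doses (not always all listed) in √10 steps, and values are medians of duplicate plates.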

[1] = compound: Cc1ccc2nc(NCCN)c3ncc(C)n3c2c1 + CS(=O)(=O)N1CCN(Cc2cc3nc(-c4cccc5[nH]ncc45)nc(N4CCOCC4)c3s2)CC1 [Pictilisib] (partner 1 µM)
In short: as §1

[2] = compound: Cc1ccc2nc(NCCN)c3ncc(C)n3c2c1 + Nc1ncn([C@H]2C[C@H](O)[C@@H](CO)O2)c(=O)n1 [Decitabine] (partner 2 µM)
In short: as §1

Salubrinal + Trametinib = compound: O=C(/C=C/c1ccccc1)NC(NC(=S)Nc1cccc2cccnc12)C(Cl)(Cl)Cl [Salubrinal] + CC(=O)Nc1cccc(-n2c(=O)n(C3CC3)c(=O)c3c(Nc4ccc(I)cc4F)n(C)c(=O)c(C)c32)c1 [Trametinib] (partner 0.02 µM)
In short: as §1

Cell Line	relative viability (Salubrinal + AZD7762; first compound 0.08 µM)	relative viability (Salubrinal + AZD7762; first compound 0.253 µM)	relative viability (Salubrinal + AZD7762; first compound 0.8 µM)	relative viability (Salubrinal + AZD7762; first compound 2.53 µM)	relative viability (Salubrinal + AZD7762; first compound 8 µM)	relative viability ([1]; first compound 0.04 µM)	relative viability ([1]; first compound 0.1265 µM)	relative viability ([1]; first compound 0.4 µM)	relative viability ([1]; first compound 1.265 µM)	relative viability ([1]; first compound 4 µM)	relative viability ([2]; first compound 0.04 µM)	relative viability ([2]; first compound 0.1265 µM)	relative viability ([2]; first compound 0.4 µM)	relative viability ([2]; first compound 1.265 µM)	relative viability ([2]; first compound 4 µM)	relative viability (Salubrinal + Trametinib; first compound 0.08 µM)	relative viability (Salubrinal + Trametinib; first compound 0.253 µM)	relative viability (Salubrinal + Trametinib; first compound 0.8 µM)	relative viability (Salubrinal + Trametinib; first compound 2.53 µM)	relative viability (Salubrinal + Trametinib; first compound 8 µM)
LCLC-103H	0.856	0.699	0.806	0.815	0.701	0.534	0.644	0.561	0.6	0.576	0.71	0.81	0.731	0.717	0.735	0.737	0.682	0.691	0.738	0.673
LK-2	0.39	0.486	0.489	0.441	0.358	0.585	0.547	0.604	0.406	0.463	0.289	0.393	0.337	0.311	0.297	0.918	0.812	0.819	0.722	0.744
LOU-NH91	0.813	0.785	0.83	0.745	0.706	0.528	0.534	0.514	0.56	0.475	0.814	0.807	0.808	0.827	0.797	0.728	0.822	0.788	0.824	0.757
LU99A	0.459	0.319	0.401	0.311	0.236	0.346	0.328	0.327	0.349	0.321	1	0.922	0.91	0.812	0.833	0.589	0.515	0.614	0.548	0.56
LXF-289	1.25	1.06	1.17	1.09	0.931	0.912	0.795	0.799	0.765	0.723	0.388	0.409	0.365	0.353	0.423	0.747	0.59	0.7	0.702	0.681
NCI-H23	0.175	0.206	0.236	0.23	0.23	0.549	0.472	0.446	0.462	0.466	0.312	0.356	0.321	0.328	0.34	0.437	0.423	0.479	0.334	0.375
NCI-H322M	0.576	0.531	0.599	0.497	0.581	0.521	0.566	0.571	0.512	0.503	0.715	0.715	0.707	0.748	0.812	0.542	0.517	0.487	0.565	0.521
NCI-H358	0.583	0.461	0.538	0.561	0.459	0.348	0.394	0.364	0.379	0.367	0.225	0.216	0.239	0.257	0.206	0.145	0.139	0.135	0.143	0.136
NCI-H441	1.28	0.87	1.03	0.905	0.85	0.557	0.464	0.454	0.505	0.472	0.235	0.245	0.191	0.26	0.235	0.48	0.415	0.48	0.507	0.462
NCI-H460	0.627	0.546	0.722	0.711	0.552	0.368	0.411	0.402	0.302	0.322	0.479	0.494	0.5	0.501	0.434	0.114	0.24	0.125	0.121	0.126
NCI-H596	1.05	1	1.07	1.16	0.865	0.384	0.37	0.285	0.309	0.411	1.02	0.967	0.979	0.887	0.897	0.851	0.745	0.747	0.817	0.675
NCI-H647	0.616	0.435	0.487	0.505	0.397	0.552	0.409	0.385	0.44	0.373	0.508	0.362	0.43	0.421	0.335	0.619	0.431	0.524	0.502	0.433
NCI-H650	1.01	1.19	1.04	0.953	0.883	0.927	0.827	0.785	0.767	0.946	0.332	0.326	0.31	0.269	0.331	1.1	0.94	1.08	1	0.976
NCI-H727	0.574	0.648	0.649	0.583	0.584	0.288	0.443	0.46	0.388	0.354	0.976		0.995	0.84	0.797	0.375	0.375	0.383	0.372	0.403
NCI-H838	0.961	0.957	1.06	0.962	0.951	0.43	0.416	0.409	0.423	0.365	0.494	0.461	0.428	0.44	0.427	0.657	0.678	0.534	0.518	0.552
NCI-H1355	0.788	0.711	0.821	0.691	0.691	0.46	0.449	0.406	0.392	0.386	0.398	0.364	0.345	0.356	0.367	0.445	0.452	0.414	0.433	0.315

Cell Line	relative viability (Salubrinal + AZD7762; first compound 0.08 µM)	relative viability (Salubrinal + AZD7762; first compound 0.253 µM)	relative viability (Salubrinal + AZD7762; first compound 0.8 µM)	relative viability (Salubrinal + AZD7762; first compound 2.53 µM)	relative viability (Salubrinal + AZD7762; first compound 8 µM)	relative viability ([1]; first compound 0.04 µM)	relative viability ([1]; first compound 0.1265 µM)	relative viability ([1]; first compound 0.4 µM)	relative viability ([1]; first compound 1.265 µM)	relative viability ([1]; first compound 4 µM)	relative viability ([2]; first compound 0.04 µM)	relative viability ([2]; first compound 0.1265 µM)	relative viability ([2]; first compound 0.4 µM)	relative viability ([2]; first compound 1.265 µM)	relative viability ([2]; first compound 4 µM)	relative viability (Salubrinal + Trametinib; first compound 0.08 µM)	relative viability (Salubrinal + Trametinib; first compound 0.253 µM)	relative viability (Salubrinal + Trametinib; first compound 0.8 µM)	relative viability (Salubrinal + Trametinib; first compound 2.53 µM)	relative viability (Salubrinal + Trametinib; first compound 8 µM)
NCI-H1395	0.376	0.443	0.389	0.432	0.385	0.689	0.638	0.642	0.828	0.551	0.616	0.708	0.713	0.669	0.607	1.15	1.15	1.18	0.972	1.02
NCI-H1437	1.19	1.1	1.16	1.11	1.04	0.427	0.449	0.443	0.369	0.374	0.581	0.526	0.596	0.495	0.498	0.563	0.601	0.52	0.545	0.494
NCI-H1651	0.464	0.423	0.546	0.484	0.388	0.512	0.477	0.593	0.589	0.506	0.628	0.664	0.69	0.637	0.518	0.848	0.833	0.898	0.829	0.929
NCI-H1666	0.793	0.863	0.831	0.704	0.926	0.372	0.478	0.402	0.554	0.449	0.753	0.719	0.692	0.792	0.647	0.802	0.869	0.847	0.903	0.783
NCI-H1734	0.596	0.657	0.613	0.572	0.515	0.457	0.481	0.451	0.409	0.424	0.464	0.5	0.458	0.501	0.511	0.704	0.742	0.787	0.656	0.597
NCI-H1755	0.668	0.406	0.517	0.41	0.584	0.485	0.439	0.476	0.39	0.411	0.716	0.764	0.681	0.7	0.723	0.847	0.803	0.829	0.765	0.716
NCI-H1792	0.514		0.982	0.571	0.354	0.348	0.244	0.309	0.259	0.242	0.614	0.553		0.511	0.461	0.533		0.524	0.374	0.631
NCI-H1793	0.676	0.407	0.505	0.366	0.276	0.393	0.381	0.383	0.389	0.309	0.32	0.5	0.439	0.383	0.453	0.484	0.437	0.402	0.42	0.304
NCI-H1915	0.713		0.718	0.71	0.676	0.969		0.578	0.939	0.923	0.265	0.248	0.267	0.253	0.238	0.219		0.583	0.314	0.311
NCI-H1944	0.563	0.471	0.472	0.433	0.596	0.331	0.37	0.319	0.363	0.328	0.377	0.428	0.436	0.418	0.422	0.451	0.448	0.403	0.399	0.374
NCI-H1975	0.691	0.611	0.853	0.744	0.601	0.317	0.281	0.245	0.261	0.242	0.384	0.394	0.405	0.455	0.403	0.281	0.309	0.36	0.376	0.312
NCI-H1993	0.909	0.744	0.871		0.612	0.804	0.648	0.693	0.765	0.771	0.731	0.468	0.632	0.606	0.583	0.506	0.614	0.503		0.616
NCI-H2085	1.14	0.905	0.944	0.946	0.932	0.515	0.436	0.429	0.551	0.422	0.56	0.556	0.522	0.534	0.524	0.632	0.539	0.617	0.52	0.487
NCI-H2087	1.44	0.751	1.44	1.31	1.29	1.05	0.824	0.816	0.981	0.984	0.308	0.362	0.249	0.285	0.299	0.201	0.191	0.181	0.186	0.207
NCI-H2126	1.05	0.936	1.06	0.992	0.909	0.512	0.512	0.489	0.453	0.456	0.6	0.571	0.62	0.599	0.563	0.592	0.579	0.544	0.576	0.513
NCI-H2170	0.953	0.942	0.995	0.792	0.878	0.31	0.337	0.361	0.292	0.319	0.473	0.442	0.433	0.448	0.461	1.1	0.658	0.979	0.941	0.925
